# Reference: US11820766B2, “Monoacylglycerol lipase modulators” (Janssen Pharmaceutica NV, priority 2018, dated 2023)
# Counter-ions that a name gives are not always drawn.
# Target: T1, human MGL from HeLa cells (Homo sapiens, UniProt Q99685)
# T1 construct: combining endogenously expressed MGL from HeLa cells with test compounds; endogenous in cells; host or cells: HeLa cells / cell homogenates
# T1 sequence (Q99685 1-303): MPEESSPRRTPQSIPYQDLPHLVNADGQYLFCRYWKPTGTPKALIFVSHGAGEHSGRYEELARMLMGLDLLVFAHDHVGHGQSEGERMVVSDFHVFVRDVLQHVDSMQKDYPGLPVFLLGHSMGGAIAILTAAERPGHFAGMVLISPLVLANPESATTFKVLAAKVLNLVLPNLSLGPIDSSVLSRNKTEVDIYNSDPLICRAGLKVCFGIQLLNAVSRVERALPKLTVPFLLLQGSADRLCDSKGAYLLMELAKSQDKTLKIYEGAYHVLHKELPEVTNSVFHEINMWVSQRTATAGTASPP
# Assay: In vitro MGL activity assay: [glycerol-1,3-3H]-oleyl glycerol cleavage by MGL from HeLa cells
# Type: biochemical
# Details: 300 nM [Glycerol-1,3-3H]-oleyl glycerol, one hour
# Text: MGL is the predominant hydrolase in HeLa cells/cell homogenates.
row,SMILES,IC50
1,"C[C@H]1c2nn(C)c(-c3cc(F)c(F)c(F)c3)c2CCN1C(=O)c1cn(C)nc1C1(C)CC1 [Example 347, [(7S)-2,7-Dimethyl-3-(3,4,5-trifluorophenyl)-5,7-dihydro-4H-pyrazolo[3,4-c]pyridin-6-yl]-[1-methyl-3-(1-methylcyclopropyl)pyrazol-4-yl]methanone]",2490 nM
2,"Cc1c(C(=O)N2CCc3c(nn(C)c3-c3cc(F)c(F)c(F)c3)[C@@H]2C)cnn1C [Example 345, (1,5-Dimethylpyrazol-4-yl)-[(7S)-2,7-dimethyl-3-(3,4,5-trifluorophenyl)-5,7-dihydro-4H-pyrazolo[3,4-c]pyridin-6-yl]methanone]",52.8 nM
3,"Cc1c(C(=O)N2CCc3c(nn(C)c3-c3cc(F)c(F)c(F)c3)[C@@H]2C)nc2ccccn12 [Example 398, [(7S)-2,7-Dimethyl-3-(3,4,5-trifluorophenyl)-5,7-dihydro-4H-pyrazolo[3,4-c]pyridin-6-yl]-(3-methylimidazo[1,2-a]pyridin-2-yl)methanone]",248 nM
4,"C[C@H]1c2nn(C)c(-c3cc(F)c(F)c(F)c3)c2CCN1C(=O)c1cccc2nncn12 [Example 438, [(7S)-2,7-Dimethyl-3-(3,4,5-trifluorophenyl)-5,7-dihydro-4H-pyrazolo[3,4-c]pyridin-6-yl]-([1,2,4]triazolo[4,3-a]pyridin-5-yl)methanone]",513 nM
5,"C[C@H]1c2nn(C)c(-c3cc(F)c(F)c(F)c3)c2CCN1C(=O)c1ccnc2cccnc12 [Example 485, [(7S)-2,7-Dimethyl-3-(3,4,5-trifluorophenyl)-5,7-dihydro-4H-pyrazolo[3,4-c]pyridin-6-yl]-(1,5-naphthyridin-4-yl)methanone]",33.2 nM

# Now from value to molecule:
row,IC50,SMILES
1,113 nM,"C[C@H]1c2nn(C)c(-c3cc(F)c(F)c(F)c3)c2CCN1C(=O)c1cnn2cccnc12 [Example 448, [(7S)-2,7-Dimethyl-3-(3,4,5-trifluorophenyl)-5,7-dihydro-4H-pyrazolo[3,4-c]pyridin-6-yl]-pyrazolo[1,5-a]pyrimidin-3-yl-methanone]"
2,41 nM,"C[C@H]1c2nn(C)c(-c3cc(F)c(F)c(F)c3)c2CCN1C(=O)c1cnc2[nH]ncc2c1 [Example 423, [(7S)-2,7-Dimethyl-3-(3,4,5-trifluorophenyl)-5,7-dihydro-4H-pyrazolo[3,4-c]pyridin-6-yl]-(1H-pyrazolo[3,4-b]pyridin-5-yl)methanone.TFA salt]"
3,133 nM,"C[C@H]1c2nn(C)c(-c3ccc4c(c3)OCO4)c2CCN1C(=O)c1ccc2ncccc2c1 [Example 540, [(7S)-3-(1,3-Benzodioxol-5-yl)-2,7-dimethyl-5,7-dihydro-4H-pyrazolo[3,4-c]pyridin-6-yl]-(6-quinolyl)methanone]"
4,27.6 nM,"C[C@H]1c2nn(-c3ccccc3)c(-c3ccccc3)c2CCN1C(=O)c1cnn(C)c1C1CC1 [Example 350, (S)-(5-cyclopropyl-1-methyl-1H-pyrazol-4-yl) (7-methyl-2,3-diphenyl-2,4,5,7-tetrahydro-6H-pyrazolo[3,4-c]pyridin-6-yl)methanone]"
5,412 nM,"C[C@H]1c2nn(C)c(-c3cc(F)c(F)c(F)c3)c2CCN1C(=O)c1nccc2cn(C)nc12 [Example 429, [(7S)-2,7-Dimethyl-3-(3,4,5-trifluorophenyl)-5,7-dihydro-4H-pyrazolo[3,4-c]pyridin-6-yl]-(2-methylpyrazolo[3,4-c]pyridin-7-yl)methanone]"

# Same assay, conditions: 300 nM [Glycerol-1,3-3H]-oleyl glycerol, one hour incubation
row,SMILES,IC50
1,"C[C@@H]1c2nn(C)c(-c3cccc(Cl)c3)c2CCN1C(=O)c1cnc2ccoc2c1 (single isomer, unassigned) [Example 127]",> 10000 nM
2,"COc1nccc(C(=O)N2CCc3c(nn(C)c3-c3cc(F)c(F)c(F)c3)[C@@H]2C)c1Cl [Example 316, (3-Chloro-2-methoxy-4-pyridyl)-[(7S)-2,7-dimethyl-3-(3,4,5-trifluorophenyl)-5,7-dihydro-4H-pyrazolo[3,4-c]pyridin-6-yl]methanone]",17.2 nM
3,"Cn1nc2c(c1-c1ccccc1)CCN(C(=O)c1cccc3cncn13)C2 [Example 79, Imidazo[1,5-a]pyridin-5-yl(2-methyl-3-phenyl-2,4,5,7-tetrahydro-6H-pyrazolo[3,4-c]pyridin-6-yl)methanone]",1190 nM
4,"Cc1nc2ccc(C(=O)N3CCc4c(nn(C)c4-c4cc(Cl)cc(Cl)c4)[C@@H]3C)cc2o1 [Example 172, (S)-(3-(3,5-Dichlorophenyl)-2,7-dimethyl-2,4,5,7-tetrahydro-6H-pyrazolo[3,4-c]pyridin-6-yl)(2-methylbenzo[d]oxazol-6-yl)methanone]",4.89 nM
5,"CC1c2nn(C)c(-c3cc(F)cc(F)c3)c2CCN1C(=O)c1ccc2ccncc2c1 (centres unmarked) [Example 161, (3-(3,5-Difluorophenyl)-2,7-dimethyl-2,4,5,7-tetrahydro-6H-pyrazolo[3,4-c]pyridin-6-yl)(isoquinolin-7-yl)methanone]",260 nM
6,"C[C@H]1c2nn(C)c(-c3cc(F)cc(F)c3)c2CCN1C(=O)c1cnc2ccoc2c1 [Example 153, (S)-(3-(3,5-Difluorophenyl)-2,7-dimethyl-2,4,5,7-tetrahydro-6H-pyrazolo[3,4-c]pyridin-6-yl)(furo[3,2-b]pyridin-6-yl)methanone]",15.4 nM
7,"C[C@H]1c2nn(C)c(-c3cc(F)c(F)c(F)c3)c2CCN1C(=O)c1cc(F)cc(-n2nccn2)c1 [Example 284, [(7S)-2,7-Dimethyl-3-(3,4,5-trifluorophenyl)-5,7-dihydro-4H-pyrazolo[3,4-c]pyridin-6-yl]-[3-fluoro-5-(triazol-2-yl)phenyl]methanone]",15.6 nM

# Next, values leading:
row,IC50,SMILES
1,2320 nM,"Cn1nc2c(c1-c1ccccc1)CCN(C(=O)c1cccc3[nH]c(C(F)(F)F)nc13)C2 [Example 72, (2-Methyl-3-phenyl-2,4,5,7-tetrahydro-6H-pyrazolo[3,4-c]pyridin-6-yl)(2-(trifluoromethyl)-1H-benzo[d]imidazol-4-yl)methanone]"
2,2.69 nM,"C[C@H]1c2nn(C)c(-c3cc(F)c(F)c(F)c3)c2CCN1C(=O)c1ccnc2c(F)cccc12 [Example 238, (S)-(2,7-Dimethyl-3-(3,4,5-trifluorophenyl)-2,4,5,7-tetrahydro-6H-pyrazolo[3,4-c]pyridin-6-yl)(8-fluoroquinolin-4-yl)methanone]"
3,662 nM,"Cn1nc2c(c1-c1ccccc1)CCN(C(=O)c1n[nH]c3c(Cl)cccc13)C2 [Example 69, (7-Chloro-1H-indazol-3-yl)(2-methyl-3-phenyl-2,4,5,7-tetrahydro-6H-pyrazolo[3,4-c]pyridin-6-yl)methanone]"
4,186 nM,"C[C@H]1c2nn(C)c(-c3ccc(C(F)(F)F)o3)c2CCN1C(=O)c1ccc2nccnc2c1 [Example 247, (S)-(2,7-Dimethyl-3-(5-(trifluoromethyl)furan-2-yl)-2,4,5,7-tetrahydro-6H-pyrazolo[3,4-c]pyridin-6-yl)(quinoxalin-6-yl)methanone]"
5,75.5 nM,"C[C@H]1c2nn(C)c(-c3cc(F)c(F)c(F)c3)c2CCN1C(=O)c1cc(F)ccc1-n1cccn1 [Example 193, (S)-(2,7-Dimethyl-3-(3,4,5-trifluorophenyl)-2,4,5,7-tetrahydro-6H-pyrazolo[3,4-c]pyridin-6-yl)(5-fluoro-2-(1H-pyrazol-1-yl)phenyl)methanone]"
6,3.73 nM,"C[C@H]1c2nn(C)c(-c3cc(F)cc(F)c3)c2CCN1C(=O)c1cc(OCCF)ccc1Cl [Example 146, (2-Chloro-5-(2-fluoroethoxy)phenyl)(3-(3,5-difluorophenyl)-2,7-dimethyl-2,4,5,7-tetrahydro-6H-pyrazolo[3,4-c]pyridin-6-yl)methanone]"
